Results published in patent US9040714B2 (MannKind Corporation, priority 2010, dated 2015).

Key:
[1] = system: XBP-1 splicing in RPMI 8226 cells; assay: Inhibition of thapsigargin-induced endogenous XBP-1 splicing in RPMI 8226 cells (RT-PCR); assay type: cell-based, human; settings: 300 nM, 2 hours
Procedure: PCR amplification products were run on a 4% agarose gel and stained with ethidium bromide. The inverse image is shown.
Cell Culture. RPMI 8226 cells were grown in monolayer culture using Dulbecco's Modified Eagle Medium (DMEM) supplemented with 10% fetal calf serum (FCS) at 37° C. and 5% CO2. Compounds were kept as 10 mM stock in DMSO at −20° C. and diluted in medium to 10 μM, Thapsigargin (Tg) was resuspended in DMSO and diluted in medium,
RT-qPCR. Procedures for measuring XBP-1s and XBP-1u mRNAs have been described previously (Volkmann et al., J. Biol. Chem. 286, 12743-55, 2011). Briefly, total RNA was harvested from cells or tissue using TRIZOL® (Invitrogen) according to the manufacture's procedures. After ethanol, precipitation and resuspension of the RNA, RIBOGREEN® (Invitrogen) was used to quantify the yield—and normalize the RNA concentration in the source tube containing isolated RNA. RT-PCR was performed by oligo dT priming, […]® II (Invitrogen) and reverse transcription using the […] GOLD® Kit (Applied Biosystems) according to the manufacturer's protocols. Primers for human XBP-1 were
All DNA oligos were purchased from IDT DNA Technologies. PCR reactions were run on a Bio-Rad PTC-100® 96-well thermocycler; heating at 94° C. for 30 seconds, annealing at 58° C. for 30 seconds polymerizing at 72° C. for 30 seconds for 35 cycles. […]

[2] = system: human myeloma RPMI8226 tumor xenografts; assay: RPMI8226 xenograft efficacy model; assay type: in vivo, SCID mice; settings: 0.75 mg/kg IV twice weekly
Procedure: SCID mice are evaluated for their ability to support implantation of desired tumor cells in support of model development and characterization. Mice are injected intravenously […] or implanted either subcutaneously (SC) or intraperitoneally (IP). To generate a relevant animal model mimicking human disease, it is desirable that all three approaches are evaluated for improved implantation rates and relevant disease progression, as is well known in the art. SC injections provide an easy way to measure tumor growth and efficacy, and IV and IP injections represent a more physiologically relevant model of human tumor spread. SC injections are given primarily in the flank, while IV injections are administered in the tail vein. Mice are manually restrained for SC and IP injections, and a Broome mouse restrainer is used for IV injections.
SCID mice are implanted with tumor cells (human RPMI8226 myeloma cells) via IP, IV or SC routes based on the results from the xenograft model development studies (above). Mice are treated with compound or mock treated (vehicle) for a period of up to 4-5 weeks. Compound administration can be via IV, IP, PO or SC routes. […]
Mice are monitored for tumor growth, regression and general health. […] Tumor growth is measured by calipers, ultrasound, or by abdominal lavage. Biomarkers in the blood or tumor can evaluated (primarily XBP-1 splicing). […]

[3] = system: XBP-1 splicing in liver and kidney; assay: XBP-1 splicing inhibition in livers and kidneys of mice after tunicamycin; assay type: in vivo, CB17 SCID mice; settings: 1 mg/kg IP, relative to PBS treated mice
Source text: The preclinical validation strategy employs a set of animal models representing normal tissues under chemical stress and multiple myeloma xenography. The normal animal model is employed as a surrogate model where dose-related on-target activity of compounds can be confirmed in tissues sensitive to standard UPR inducing agents such as tunicamycin (Wu et al., Dev Cell. 2007 September; 13 (1d):351-64). […] Upon induction with tunicamycin, tissues induce active XBP-1 mRNA, splicing, and this activity is suppressed by IRE-1α inhibitors. This on-target ER stress animal model is a useful screening and early pharmacokinetic tool.
CB17 SCID mice were treated with 1 mg/kg tunicamycin by intraperitoneal (IP) injection at time 0 (T=0). Two hours later, compound A formulated in 10% hydroxy beta propyl cyclo dextran HBPCD was administered by IP injection. Doses were 50 mg/kg, 25 mg/kg and 10 mg/kg (4 mice in each group). Mice were sacrificed two hours later (4 hours from T=0), and the designated organs were harvested (FIG. 3A).
RT-PCR analysis was performed using murine-specific XBP-1 primers from total RNA harvested from specified organs. […] Each lane represents an individual mouse where RNA was harvested and RT-PCR was performed. Method of RNA extraction and RT-PCR analysis is described in Volkmann et al., J. Biol. Chem. 286, 12743-55, 2011. […]

Compound: C/C=C(/C)C(=O)O[C@H]1C(C)=C2[C@H]([C@@H]1OC(=O)CCCCCCC)[C@@](C)(OC(C)=O)C[C@H](OC(=O)CCC)[C@@]1(O)[C@H]2OC(=O)[C@@]1(C)O [Thapsigargin]
- induction of XBP-1s [1]: near complete conversion of XBP-1u to XBP-1s

Compound: CC(C)C[C@H](NC(=O)[C@H](Cc1ccccc1)NC(=O)c1cnccn1)B(O)O [bortezomib, [(1R)-3-methyl-1-[[(2S)-1-oxo-3-phenyl-2-[(pyrazinylcarbonyl)amino]propyl]amino]butyl]boronic acid]
- tumor growth [2]: suppression of tumor growth

Compound: tunicamycin
- induction of XBP-1 spliced (XBP-1s) [3]: induces XBP-1 spliced (XBP-1s)
